From patent US20120270237A9, “METHODS FOR THE IDENTIFICATION OF KINASE INTERACTING MOLECULES AND FOR THE PURIFICATION OF KINASE PROTEINS” (Cellzone AG, priority 2009, published 2012)

Columns and labels:
Test in all cases: Kinobeads competition binding with immobilized CZC25342, mixed HeLa placenta lysates (Example 5, Table 7)
[1] = target: T1, kinases from mixed HeLa placenta lysates (Homo sapiens, UniProt O14965); details: kinase AurA; 10 μM free compound; HeLa Placenta lysate mix
T1 construct: capturing and identification of kinases from mixed HeLa placenta lysates; endogenous in cells; host or cells: mixed lysate of HeLa cells and placenta tissue
Experimental: (§1) To one aliquot of cell lysate 10 μM of the free compound (FIG. 2, CZC25342) was added and allowed to bind to proteins in the lysate. Then the affinity matrix with the immobilized compound was added to capture proteins that were not interacting with the previously added free compound. Beads were separated from the lysate and bead bound proteins were eluted in SDS sample buffer and subsequently separated by SDS-Polyacrylamide gel electrophoresis (FIG. 11). Suitable gel bands were cut out and subjected to in-gel proteolytic digestion with trypsin. The second lysate aliquot was processed identically, however no free compound was added (DMSO solvent control). Peptides originating from samples 1 and 2 were labeled with iTRAQ reagents (iTRAQ 114 and iTRAQ 117) and the combined samples were analyzed with a nano-flow liquid chromatography system coupled online to a tandem mass spectrometer (LC-MS/MS) experiment followed by iTRAQ reporter ion quantification in the MS/MS spectra as described in Example 2. The identified kinases are shown in Table 7 including the percent competition values for the sample to which 10 μM free compound had been added. In total of 83 different kinases were identified and competed by different degrees.

[2] = target: T2, kinases from mixed HeLa placenta lysates (Homo sapiens, UniProt O43318); details: kinase MAP3K7; 10 μM free compound; HeLa Placenta lysate mix
T2 construct: capturing and identification of kinases from mixed HeLa placenta lysates; endogenous in cells; host or cells: mixed lysate of HeLa cells and placenta tissue
Experimental: as §1

[3] = target: T3, kinases from mixed HeLa placenta lysates (Homo sapiens, UniProt O75676); details: kinase MSK2; 10 μM free compound; HeLa Placenta lysate mix
T3 construct: capturing and identification of kinases from mixed HeLa placenta lysates; endogenous in cells; host or cells: mixed lysate of HeLa cells and placenta tissue
Experimental: as §1

[4] = target: T4, kinases from mixed HeLa placenta lysates (Homo sapiens, UniProt P07947); details: kinase YES; 10 μM free compound; HeLa Placenta lysate mix
T4 construct: capturing and identification of kinases from mixed HeLa placenta lysates; endogenous in cells; host or cells: mixed lysate of HeLa cells and placenta tissue
Experimental: as §1

[5] = target: T5, kinases from mixed HeLa placenta lysates (Homo sapiens, UniProt P12931); details: kinase SRC; 10 μM free compound; HeLa Placenta lysate mix
T5 construct: capturing and identification of kinases from mixed HeLa placenta lysates; endogenous in cells; host or cells: mixed lysate of HeLa cells and placenta tissue
Experimental: as §1

[6] = target: T6, kinases from mixed HeLa placenta lysates (Homo sapiens, UniProt P27448); details: kinase MARK3; 10 μM free compound; HeLa Placenta lysate mix
T6 construct: capturing and identification of kinases from mixed HeLa placenta lysates; endogenous in cells; host or cells: mixed lysate of HeLa cells and placenta tissue
Experimental: as §1

[7] = target: T7, kinases from mixed HeLa placenta lysates (Homo sapiens, UniProt P36894); details: kinase BMPR1A; 10 μM free compound; HeLa Placenta lysate mix
T7 construct: capturing and identification of kinases from mixed HeLa placenta lysates; endogenous in cells; host or cells: mixed lysate of HeLa cells and placenta tissue
Experimental: as §1

[8] = target: T8, kinases from mixed HeLa placenta lysates (Homo sapiens, UniProt P42680); details: kinase TEC; 10 μM free compound; HeLa Placenta lysate mix
T8 construct: capturing and identification of kinases from mixed HeLa placenta lysates; endogenous in cells; host or cells: mixed lysate of HeLa cells and placenta tissue
Experimental: as §1

[9] = target: T9, kinases from mixed HeLa placenta lysates (Homo sapiens, UniProt P45984); details: kinase JNK2; 10 μM free compound; HeLa Placenta lysate mix
T9 construct: capturing and identification of kinases from mixed HeLa placenta lysates; endogenous in cells; host or cells: mixed lysate of HeLa cells and placenta tissue
Experimental: as §1

[10] = target: T10, kinases from mixed HeLa placenta lysates (Homo sapiens, UniProt P49841); details: kinase GSK3B; 10 μM free compound; HeLa Placenta lysate mix
T10 construct: capturing and identification of kinases from mixed HeLa placenta lysates; endogenous in cells; host or cells: mixed lysate of HeLa cells and placenta tissue
Experimental: as §1

[11] = target: T11, kinases from mixed HeLa placenta lysates (Homo sapiens, UniProt P50750); details: kinase CDK9; 10 μM free compound; HeLa Placenta lysate mix
T11 construct: capturing and identification of kinases from mixed HeLa placenta lysates; endogenous in cells; host or cells: mixed lysate of HeLa cells and placenta tissue
Experimental: as §1

[12] = target: T12, kinases from mixed HeLa placenta lysates (Homo sapiens, UniProt P78527); details: kinase DNAPK; 10 μM free compound; HeLa Placenta lysate mix
T12 construct: capturing and identification of kinases from mixed HeLa placenta lysates; endogenous in cells; host or cells: mixed lysate of HeLa cells and placenta tissue
Experimental: as §1

[13] = target: T13, kinases from mixed HeLa placenta lysates (Homo sapiens, UniProt Q04771); details: kinase ALK2; 10 μM free compound; HeLa Placenta lysate mix
T13 construct: capturing and identification of kinases from mixed HeLa placenta lysates; endogenous in cells; host or cells: mixed lysate of HeLa cells and placenta tissue
Experimental: as §1

[14] = target: T14, kinases from mixed HeLa placenta lysates (Homo sapiens, UniProt Q04912); details: kinase RON; 10 μM free compound; HeLa Placenta lysate mix
T14 construct: capturing and identification of kinases from mixed HeLa placenta lysates; endogenous in cells; host or cells: mixed lysate of HeLa cells and placenta tissue
Experimental: as §1

[15] = target: T15, kinases from mixed HeLa placenta lysates (Homo sapiens, UniProt Q13163); details: kinase MAP2K5; 10 μM free compound; HeLa Placenta lysate mix
T15 construct: capturing and identification of kinases from mixed HeLa placenta lysates; endogenous in cells; host or cells: mixed lysate of HeLa cells and placenta tissue
Experimental: as §1

[16] = target: T16, kinases from mixed HeLa placenta lysates (Homo sapiens, UniProt Q13555); details: kinase CaMK2g; 10 μM free compound; HeLa Placenta lysate mix
T16 construct: capturing and identification of kinases from mixed HeLa placenta lysates; endogenous in cells; host or cells: mixed lysate of HeLa cells and placenta tissue
Experimental: as §1

[17] = target: T17, kinases from mixed HeLa placenta lysates (Homo sapiens, UniProt Q13976); details: kinase PKG1; 10 μM free compound; HeLa Placenta lysate mix
T17 construct: capturing and identification of kinases from mixed HeLa placenta lysates; endogenous in cells; host or cells: mixed lysate of HeLa cells and placenta tissue
Experimental: as §1

[18] = target: T18, kinases from mixed HeLa placenta lysates (Homo sapiens, UniProt Q14164); details: kinase IKKe; 10 μM free compound; HeLa Placenta lysate mix
T18 construct: capturing and identification of kinases from mixed HeLa placenta lysates; endogenous in cells; host or cells: mixed lysate of HeLa cells and placenta tissue
Experimental: as §1

[19] = target: T19, kinases from mixed HeLa placenta lysates (Homo sapiens, UniProt Q14289); details: kinase PYK2; 10 μM free compound; HeLa Placenta lysate mix
T19 construct: capturing and identification of kinases from mixed HeLa placenta lysates; endogenous in cells; host or cells: mixed lysate of HeLa cells and placenta tissue
Experimental: as §1

[20] = target: T20, kinases from mixed HeLa placenta lysates (Homo sapiens, UniProt Q16513); details: kinase PKN2; 10 μM free compound; HeLa Placenta lysate mix
T20 construct: capturing and identification of kinases from mixed HeLa placenta lysates; endogenous in cells; host or cells: mixed lysate of HeLa cells and placenta tissue
Experimental: as §1

[21] = target: T21, kinases from mixed HeLa placenta lysates (Homo sapiens, UniProt Q5S007); details: kinase LRRK2; 10 μM free compound; HeLa Placenta lysate mix
T21 construct: capturing and identification of kinases from mixed HeLa placenta lysates; endogenous in cells; host or cells: mixed lysate of HeLa cells and placenta tissue
Experimental: as §1

[22] = target: T22, kinases from mixed HeLa placenta lysates (Homo sapiens, UniProt Q96C45); details: kinase ULK4; 10 μM free compound; HeLa Placenta lysate mix
T22 construct: capturing and identification of kinases from mixed HeLa placenta lysates; endogenous in cells; host or cells: mixed lysate of HeLa cells and placenta tissue
Experimental: as §1

[23] = target: T23, kinases from mixed HeLa placenta lysates (Homo sapiens, UniProt Q96GD4); details: kinase AurB; 10 μM free compound; HeLa Placenta lysate mix
T23 construct: capturing and identification of kinases from mixed HeLa placenta lysates; endogenous in cells; host or cells: mixed lysate of HeLa cells and placenta tissue
Experimental: as §1

[24] = target: T24, kinases from mixed HeLa placenta lysates (Homo sapiens, UniProt Q9NSY1); details: kinase BIKE; 10 μM free compound; HeLa Placenta lysate mix
T24 construct: capturing and identification of kinases from mixed HeLa placenta lysates; endogenous in cells; host or cells: mixed lysate of HeLa cells and placenta tissue
Experimental: as §1

T4 sequence (P07947 whole entry): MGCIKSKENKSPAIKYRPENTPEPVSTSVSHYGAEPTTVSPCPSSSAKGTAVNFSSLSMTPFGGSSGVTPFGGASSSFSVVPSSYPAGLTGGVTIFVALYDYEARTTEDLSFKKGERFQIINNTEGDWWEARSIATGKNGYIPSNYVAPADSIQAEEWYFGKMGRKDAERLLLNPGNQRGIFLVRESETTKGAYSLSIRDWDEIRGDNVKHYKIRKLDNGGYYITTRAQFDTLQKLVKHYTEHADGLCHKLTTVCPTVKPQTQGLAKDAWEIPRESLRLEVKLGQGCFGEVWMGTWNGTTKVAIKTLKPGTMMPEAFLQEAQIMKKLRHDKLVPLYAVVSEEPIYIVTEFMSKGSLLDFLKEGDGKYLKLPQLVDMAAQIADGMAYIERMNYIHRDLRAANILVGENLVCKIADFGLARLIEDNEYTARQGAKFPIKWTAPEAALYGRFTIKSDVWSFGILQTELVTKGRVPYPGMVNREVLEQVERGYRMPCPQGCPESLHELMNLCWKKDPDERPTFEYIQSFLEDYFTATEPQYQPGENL
T2 sequence (O43318 whole entry): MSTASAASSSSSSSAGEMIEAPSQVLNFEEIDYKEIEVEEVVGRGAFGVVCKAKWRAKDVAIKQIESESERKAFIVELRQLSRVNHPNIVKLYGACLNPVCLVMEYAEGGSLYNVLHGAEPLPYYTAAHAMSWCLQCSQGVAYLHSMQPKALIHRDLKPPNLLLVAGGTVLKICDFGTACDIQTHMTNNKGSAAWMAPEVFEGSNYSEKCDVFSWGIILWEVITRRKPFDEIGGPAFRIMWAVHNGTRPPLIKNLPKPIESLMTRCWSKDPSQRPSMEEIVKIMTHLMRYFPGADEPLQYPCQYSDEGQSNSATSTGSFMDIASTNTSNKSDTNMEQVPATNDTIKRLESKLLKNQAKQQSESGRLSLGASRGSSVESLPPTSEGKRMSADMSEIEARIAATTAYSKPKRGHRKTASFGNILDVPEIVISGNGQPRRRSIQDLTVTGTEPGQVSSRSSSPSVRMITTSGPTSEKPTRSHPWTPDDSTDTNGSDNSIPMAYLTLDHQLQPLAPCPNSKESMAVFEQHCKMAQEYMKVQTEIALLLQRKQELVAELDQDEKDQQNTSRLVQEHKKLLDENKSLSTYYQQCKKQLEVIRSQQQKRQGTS
T22 sequence (Q96C45 whole entry): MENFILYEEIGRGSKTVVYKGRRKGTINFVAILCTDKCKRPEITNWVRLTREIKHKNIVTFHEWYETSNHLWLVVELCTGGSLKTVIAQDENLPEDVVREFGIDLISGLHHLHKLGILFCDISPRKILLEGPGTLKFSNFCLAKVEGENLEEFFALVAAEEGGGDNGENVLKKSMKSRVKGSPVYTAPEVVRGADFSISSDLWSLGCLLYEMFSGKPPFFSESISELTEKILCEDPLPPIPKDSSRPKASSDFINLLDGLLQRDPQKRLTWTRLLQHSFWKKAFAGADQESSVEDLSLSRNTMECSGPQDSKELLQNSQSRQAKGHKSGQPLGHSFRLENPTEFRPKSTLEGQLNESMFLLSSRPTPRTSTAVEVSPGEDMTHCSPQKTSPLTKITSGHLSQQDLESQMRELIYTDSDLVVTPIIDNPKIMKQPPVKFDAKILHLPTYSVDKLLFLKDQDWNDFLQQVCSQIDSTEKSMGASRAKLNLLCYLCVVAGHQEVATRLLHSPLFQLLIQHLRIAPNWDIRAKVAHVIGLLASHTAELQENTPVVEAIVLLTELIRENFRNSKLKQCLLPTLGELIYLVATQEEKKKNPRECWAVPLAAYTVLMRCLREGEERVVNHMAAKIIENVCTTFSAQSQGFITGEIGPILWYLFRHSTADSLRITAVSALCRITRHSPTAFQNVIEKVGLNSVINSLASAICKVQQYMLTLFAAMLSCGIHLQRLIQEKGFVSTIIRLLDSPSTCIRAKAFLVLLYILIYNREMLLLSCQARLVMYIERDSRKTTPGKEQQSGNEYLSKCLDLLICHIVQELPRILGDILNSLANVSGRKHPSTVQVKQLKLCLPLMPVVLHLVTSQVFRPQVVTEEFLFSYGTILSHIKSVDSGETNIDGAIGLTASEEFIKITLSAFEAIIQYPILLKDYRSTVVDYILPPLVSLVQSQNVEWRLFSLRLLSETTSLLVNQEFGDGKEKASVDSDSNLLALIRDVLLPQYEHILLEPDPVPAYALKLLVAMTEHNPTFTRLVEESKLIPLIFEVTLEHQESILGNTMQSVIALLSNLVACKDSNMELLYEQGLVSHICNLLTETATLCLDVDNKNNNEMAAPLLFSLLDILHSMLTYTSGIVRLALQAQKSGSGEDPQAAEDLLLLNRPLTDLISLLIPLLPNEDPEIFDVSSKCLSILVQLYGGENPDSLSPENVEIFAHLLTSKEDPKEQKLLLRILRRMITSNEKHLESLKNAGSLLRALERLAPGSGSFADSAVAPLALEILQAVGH
T18 sequence (Q14164 whole entry): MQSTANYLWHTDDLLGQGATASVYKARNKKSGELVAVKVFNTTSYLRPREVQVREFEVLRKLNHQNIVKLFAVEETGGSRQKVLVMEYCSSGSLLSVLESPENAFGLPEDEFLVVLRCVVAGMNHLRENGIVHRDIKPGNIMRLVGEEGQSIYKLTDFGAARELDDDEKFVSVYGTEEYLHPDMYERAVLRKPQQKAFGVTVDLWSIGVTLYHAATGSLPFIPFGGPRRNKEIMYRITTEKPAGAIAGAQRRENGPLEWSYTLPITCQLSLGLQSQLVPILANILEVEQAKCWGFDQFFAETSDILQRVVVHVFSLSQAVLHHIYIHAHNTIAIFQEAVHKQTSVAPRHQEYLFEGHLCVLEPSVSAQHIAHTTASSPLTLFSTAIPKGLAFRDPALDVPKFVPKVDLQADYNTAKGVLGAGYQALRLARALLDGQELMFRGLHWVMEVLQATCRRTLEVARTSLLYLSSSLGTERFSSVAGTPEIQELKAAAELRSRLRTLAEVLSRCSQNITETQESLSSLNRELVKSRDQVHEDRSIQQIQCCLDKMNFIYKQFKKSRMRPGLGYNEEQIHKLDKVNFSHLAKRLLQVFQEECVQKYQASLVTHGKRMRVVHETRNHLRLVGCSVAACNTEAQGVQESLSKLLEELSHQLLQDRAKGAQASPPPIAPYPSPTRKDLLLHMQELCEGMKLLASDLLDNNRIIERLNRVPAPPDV
T9 sequence (P45984 whole entry): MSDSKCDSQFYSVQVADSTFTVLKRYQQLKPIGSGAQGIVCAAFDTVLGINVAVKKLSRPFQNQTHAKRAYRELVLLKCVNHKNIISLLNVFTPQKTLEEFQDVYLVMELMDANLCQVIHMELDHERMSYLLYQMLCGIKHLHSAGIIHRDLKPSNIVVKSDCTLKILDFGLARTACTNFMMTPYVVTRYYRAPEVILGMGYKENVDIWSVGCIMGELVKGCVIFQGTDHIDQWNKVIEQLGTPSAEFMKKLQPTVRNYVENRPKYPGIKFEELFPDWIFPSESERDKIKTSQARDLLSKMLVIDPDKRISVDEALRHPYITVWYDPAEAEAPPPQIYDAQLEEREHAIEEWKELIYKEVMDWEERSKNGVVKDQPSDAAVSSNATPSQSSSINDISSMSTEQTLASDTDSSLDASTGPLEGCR
T1 sequence (O14965 whole entry): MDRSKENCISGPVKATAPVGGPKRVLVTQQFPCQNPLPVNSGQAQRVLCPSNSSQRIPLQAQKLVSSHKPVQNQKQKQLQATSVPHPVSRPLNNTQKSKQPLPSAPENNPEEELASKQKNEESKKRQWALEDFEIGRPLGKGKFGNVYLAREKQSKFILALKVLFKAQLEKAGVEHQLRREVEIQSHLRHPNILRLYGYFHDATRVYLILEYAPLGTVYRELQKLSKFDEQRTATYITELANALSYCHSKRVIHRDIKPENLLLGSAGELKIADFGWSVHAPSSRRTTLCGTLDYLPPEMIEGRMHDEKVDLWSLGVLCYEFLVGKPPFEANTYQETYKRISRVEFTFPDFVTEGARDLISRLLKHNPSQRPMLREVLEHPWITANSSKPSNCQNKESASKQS
T6 sequence (P27448 whole entry): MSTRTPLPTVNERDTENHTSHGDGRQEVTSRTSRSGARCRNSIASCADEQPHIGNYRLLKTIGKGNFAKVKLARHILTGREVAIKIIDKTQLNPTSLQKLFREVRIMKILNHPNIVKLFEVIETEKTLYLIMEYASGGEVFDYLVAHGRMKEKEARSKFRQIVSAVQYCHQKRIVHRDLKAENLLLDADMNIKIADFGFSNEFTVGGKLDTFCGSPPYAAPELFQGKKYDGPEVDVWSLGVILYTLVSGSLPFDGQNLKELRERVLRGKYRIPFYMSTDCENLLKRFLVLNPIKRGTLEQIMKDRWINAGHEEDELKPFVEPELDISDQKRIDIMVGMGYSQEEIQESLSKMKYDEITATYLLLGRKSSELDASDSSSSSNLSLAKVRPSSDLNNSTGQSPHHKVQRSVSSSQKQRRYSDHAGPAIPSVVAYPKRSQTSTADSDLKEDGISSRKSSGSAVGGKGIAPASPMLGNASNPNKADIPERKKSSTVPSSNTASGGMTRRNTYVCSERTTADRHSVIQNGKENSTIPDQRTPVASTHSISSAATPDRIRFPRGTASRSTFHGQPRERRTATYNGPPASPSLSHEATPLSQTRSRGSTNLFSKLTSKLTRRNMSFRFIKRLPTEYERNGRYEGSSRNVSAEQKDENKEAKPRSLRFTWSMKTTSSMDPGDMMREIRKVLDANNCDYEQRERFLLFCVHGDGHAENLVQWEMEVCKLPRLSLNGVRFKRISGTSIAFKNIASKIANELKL

Competition % AurA [1]: 93.6% | Competition % MAP3K7 [2]: 85.8% | Competition % MSK2 [3]: 93.2% | Competition % YES [4]: 91.7% | Competition % SRC [5]: 89.5% | Competition % MARK3 [6]: 96.2% | Competition % BMPR1A [7]: 84.1% | Competition % TEC [8]: 89.3% | Competition % JNK2 [9]: 83.8% | Competition % GSK3B [10]: 92.5% | Competition % CDK9 [11]: 97.6% | Competition % DNAPK [12]: 89.2% | Competition % ALK2 [13]: 96.4% | Competition % RON [14]: 96% | Competition % MAP2K5 [15]: 87.4% | Competition % CaMK2g [16]: 75.2% | Competition % PKG1 [17]: 79.3% | Competition % IKKe [18]: 69% | Competition % PYK2 [19]: 96.3% | Competition % PKN2 [20]: 98% | Competition % LRRK2 [21]: 87.8% | Competition % ULK4 [22]: 84.7% | Competition % AurB [23]: 93.1% | Competition % BIKE [24]: 94.8%
Structure (SMILES): CS(=O)(=O)Nc1ccccc1Nc1nc(Nc2cccc(OCCN)c2)ncc1F [CZC25342, N-(2-(2-(3-(2-aminoethoxy)phenylamino)-5-fluoropyrimidin-4-ylamino)phenyl)methanesulfonamide]
